Data on 15 compounds can be found in patent US10689327B2, “Prodrug amino acid derivative” (TAISHO PHARMACEUTICALS CO., LTD., priority 2016, dated 2020).

The nature of the series: Stability test in solution (pH 1.2 and pH 6.5). The series is classed as physicochemical. The conditions noted are these: 1 hour; for Compound's percent residue (%) pH 6.5: 20 mM phosphate buffer pH 6.5, 37° C.; for Compound's percent residue (%) pH 1.2: hydrochloric acid solution pH 1.2, 37° C. Here is the method: Test 2: Stability Test in Solution
A test to determine the stability of Inventive Compounds (I-A) or (I) in a hydrochloric acid solution (pH 1.2) and 20 mM phosphate buffer (pH 6.5) was conducted in accordance with the following method.
A compound was dissolved in a hydrochloric acid solution (pH 1.2) containing hydrochloric acid and sodium chloride or a 20 mM phosphate buffer (pH 6.5) containing disodium hydrogenphosphate, sodium dihydrogenphosphate and sodium chloride to prepare a solution with a concentration of about 50 ng/mL (near the saturated concentration when the compound was not dissolved). The solution was incubated at 37° C. for 1 hour and the compound's concentration before and after the incubation was quantified by high-performance liquid chromatography to calculate the percent residue of the compound. Compounds having low solubility were assessed as being not applicable.
The percent residues of representative compounds in the hydrochloric acid solution (pH 1.2) and the 20 mM phosphate buffer (pH 6.5) are shown in the following Table 2.

Counter-ions that a name gives are not always drawn.

For the compound `CCCO[C@@H]1C[C@@H]2[C@H]([C@]1(N)C(=O)OC(C)OC(=O)O[C@H]1C[C@@H](C)CC[C@@H]1C(C)C)[C@@]2(F)C(=O)O` (single isomer, unassigned) [Example 15-B], the “Compound's percent residue (%) pH 6.5” value is reported as 103% and the “Compound's percent residue (%) pH 1.2” value is given as 100%.

With `CC(OC(=O)O[C@@H]1C[C@@H]2CC[C@@]1(C)C2(C)C)OC(=O)[C@@]1(N)[C@H]2[C@@H](C[C@H]1OCc1ccc(F)cc1)[C@]2(F)C(=O)O` (single isomer, unassigned) [Example 17-A], the “Compound's percent residue (%) pH 6.5” value is on record as 97% and the “Compound's percent residue (%) pH 1.2” value is 104%. Consider `CCCO[C@@H]1C[C@@H]2[C@H]([C@]1(N)C(=O)OC(C)OC(=O)O[C@@H]1C[C@@H]3CC[C@@]1(C)C3(C)C)[C@@]2(F)C(=O)O` (single isomer, unassigned) [Example 18-A], for which the “Compound's percent residue (%) pH 6.5” value was 103% and the “Compound's percent residue (%) pH 1.2” value amounted to 107%.

For `CC(OC(=O)O[C@H]1C[C@H]2CC[C@]1(C)C2(C)C)OC(=O)[C@@]1(N)[C@H]2[C@@H](C[C@H]1OCc1ccc(F)cc1)[C@]2(F)C(=O)O` (single isomer, unassigned) [Example 19-B], the “Compound's percent residue (%) pH 6.5” value was found to be 106% and the “Compound's percent residue (%) pH 1.2” value stood at 100%. For `CC(C)[C@@H]1CC[C@@H](C)C[C@H]1OC(=O)O[C@H](C)OC(=O)[C@@]1(N)[C@H]2[C@@H](C[C@H]1OCc1ccc(F)cc1)[C@]2(F)C(=O)O` [Example 1, (1R,2R,3R,5R,6R)-2-amino-6-fluoro-3-[(4-fluorophenyl)methoxy]-2-({(1R)-1-[({[(1R,2S,5R)-5-methyl-2-(propan-2-yl)cyclohexyl]oxy}carbonyl)oxy]ethoxy}carbonyl)bicyclo[3.1.0]hexane-6-carboxylic acid] the same measures were 103% and 109%. Take `CC(C)[C@@H]1CC[C@@H](C)C[C@H]1OC(=O)O[C@@H](C)OC(=O)[C@@]1(N)[C@H]2[C@@H](C[C@H]1OCc1ccc(F)cc1)[C@]2(F)C(=O)O` [Example 2, (1R,2R,3R,5R,6R)-2-Amino-6-fluoro-3-[(4-fluorophenyl)methoxy]-2-({(1S)-1-[({[(1R,2S,5R)-5-methyl-2-(propan-2-yl)cyclohexyl]oxy}carbonyl)oxy]ethoxy}carbonyl)bicyclo[3.1.0]hexane-6-carboxylic acid]: the “Compound's percent residue (%) pH 6.5” value was determined as 104%. `C[C@H](OC(=O)C12CC3CC(CC(C3)C1)C2)OC(=O)[C@@]1(N)[C@H]2[C@@H](C[C@H]1OCc1ccc(F)cc1)[C@]2(F)C(=O)O` [Example 3, (1R,2R,3R,5R,6R)-2-Amino-6-fluoro-3-[(4-fluorophenyl)methoxy]-2-({(1R)-1-[(tricyclo[3.3.1.1^3,7]decane-1-carbonyl)oxy]ethoxy}carbonyl)bicyclo[3.1.0]hexane-6-carboxylic acid]: the “Compound's percent residue (%) pH 1.2” value is given as 93%. `C[C@@H](OC(=O)C12CC3CC(CC(C3)C1)C2)OC(=O)[C@@]1(N)[C@H]2[C@@H](C[C@H]1OCc1ccc(F)cc1)[C@]2(F)C(=O)O` [Example 4, (1R,2R,3R,5R,6R)-2-Amino-6-fluoro-3-[(4-fluorophenyl)methoxy]-2-({(1S)-1-[(tricyclo[3.3.1.1^3,7]decane-1-carbonyl)oxy]ethoxy}carbonyl)bicyclo[3.1.0]hexane-6-carboxylic acid]: the “Compound's percent residue (%) pH 6.5” value was found to be 98% and the “Compound's percent residue (%) pH 1.2” value is recorded as 98%.

Consider `CC(OC(=O)OC1CCCCC1)OC(=O)[C@@]1(N)[C@H]2[C@@H](C[C@H]1OCc1ccc(F)cc1)[C@]2(F)C(=O)O` (stereo partly drawn) [Example 5, (1R,2R,3R,5R,6R)-2-Amino-2-[(1-{[(cyclohexyloxy)carbonyl]oxy}ethoxy)carbonyl]-6-fluoro-3-[(4-fluorophenyl)methoxy]bicyclo[3.1.0]hexane-6-carboxylic acid], for which the “Compound's percent residue (%) pH 6.5” value came out at 98% and the “Compound's percent residue (%) pH 1.2” value came out at 100%. For the compound `CC(C)[C@H](N)C(=O)OCOC(=O)[C@@]1(N)[C@H]2[C@@H](C[C@H]1OCc1ccc(F)cc1)[C@]2(F)C(=O)O` [Example 6, (1R,2R,3R,5R,6R)-2-Amino-6-fluoro-3-[(4-fluorophenyl)methoxy]-2-{[(L-valyloxy)methoxy]carbonyl}bicyclo[3.1.0]hexane-6-carboxylic acid dihydrochloride], the “Compound's percent residue (%) pH 6.5” value stood at 11% and the “Compound's percent residue (%) pH 1.2” value came to 99%. For `N[C@]1(C(=O)OCOC(=O)C23CC4CC(CC(C4)C2)C3)[C@H]2[C@@H](C[C@H]1OCc1ccc(F)cc1)[C@]2(F)C(=O)O` [Example 7, (1R,2R,3R,5R,6R)-2-Amino-6-fluoro-3-[(4-fluorophenyl)methoxy]-2-({[(tricyclo[3.3.1.1^3,7]decane-1-carbonyl)oxy]methoxy}carbonyl)bicyclo[3.1.0]hexane-6-carboxylic acid] the same measures were 106% and 101%. Consider `CC(C)[C@@H]1CC[C@@H](C)C[C@H]1OC(=O)O[C@H](C)OC(=O)[C@@]1(N)[C@H]2[C@@H](C[C@H]1OCc1ccc(F)c(F)c1)[C@]2(F)C(=O)O` [Example 8, (1R,2R,3R,5R,6R)-2-amino-3-[(3,4-difluorophenyl)methoxy]-6-fluoro-2-({(1R)-1-[({[(1R,2S,5R)-5-methyl-2-(propan-2-yl)cyclohexyl]oxy}carbonyl)oxy]ethoxy}carbonyl)bicyclo[3.1.0]hexane-6-carboxylic acid], for which the “Compound's percent residue (%) pH 1.2” value is reported as 97%.

Turning to `CC(C)[C@@H]1CC[C@@H](C)C[C@H]1OC(=O)O[C@@H](C)OC(=O)[C@@]1(N)[C@H]2[C@@H](C[C@H]1OCc1ccc(F)c(F)c1)[C@]2(F)C(=O)O` [Example 9, (1R,2R,3R,5R,6R)-2-Amino-3-[(3,4-difluorophenyl)methoxy]-6-fluoro-2-({(1S)-1-[({[(1R,2S,5R)-5-methyl-2-(propan-2-yl)cyclohexyl]oxy}carbonyl)oxy]ethoxy}carbonyl)bicyclo[3.1.0]hexane-6-carboxylic acid], the “Compound's percent residue (%) pH 6.5” value is given as 116% and the “Compound's percent residue (%) pH 1.2” value is on record as 115%.

With `C[C@H](OC(=O)C12CC3CC(CC(C3)C1)C2)OC(=O)[C@@]1(N)[C@H]2[C@@H](C[C@H]1OCc1ccc(F)c(F)c1)[C@]2(F)C(=O)O` [Example 10, (1R,2R,3R,5R,6R)-2-Amino-3-[(3,4-difluorophenyl)methoxy]-6-fluoro-2-({(1R)-1-[(tricyclo[3.3.1.1^3,7]decane-1-carbonyl)oxy]ethoxy}carbonyl)bicyclo[3.1.0]hexane-6-carboxylic acid], the “Compound's percent residue (%) pH 6.5” value was determined as 107% and the “Compound's percent residue (%) pH 1.2” value came out at 104%.

Consider `C[C@@H](OC(=O)C12CC3CC(CC(C3)C1)C2)OC(=O)[C@@]1(N)[C@H]2[C@@H](C[C@H]1OCc1ccc(F)c(F)c1)[C@]2(F)C(=O)O` [Example 11, (1R,2R,3R,5R,6R)-2-Amino-3-[(3,4-difluorophenyl)methoxy]-6-fluoro-2-({(1S)-1-[(tricyclo[3.3.1.1^3,7]decane-1-carbonyl)oxy]ethoxy}carbonyl)bicyclo[3.1.0]hexane-6-carboxylic acid], for which the “Compound's percent residue (%) pH 6.5” value was 95% and the “Compound's percent residue (%) pH 1.2” value was 96%.
